{
  "source": "paper PMC10525795",
  "about": "“Pharmacokinetics of Four Tyrosine Kinase Inhibitors in Adult and Paediatric Chronic Myeloid Leukaemia Patients” (Biomedicines, 2023)",
  "key": {"[1]": {"experiment": "Plasma drug concentration at end of dosing interval (Ctrough), HPLC–UV, patients with CML", "settings": "for Plasma concentrations, median (IQR): all sampled patients with CML on the drug"}, "[2]": {"experiment": "Cerebrospinal fluid drug concentration at end of dosing interval (Ctrough), HPLC–UV, patients with CML", "assay_type": "in vivo, human", "settings": "for Cerebrospinal fluid concentrations, median (IQR): all sampled patients with CML on the drug"}, "p-glycoprotein (PGP)": {"test_system": "p-glycoprotein (PGP)", "design": "method as in PMID 28256516", "settings": "cited from earlier work"}, "[3]": {"settings": "cited from earlier work"}, "[4]": {"test_system": "breast-cancer resistance protein (BRCP)", "design": "method as in PMID 28256516", "settings": "cited from earlier work"}, "[5]": {"settings": "cited from earlier work", "remark": "listed apart in the source"}, "[6]": {"settings": "cited from earlier work", "remark": "listed apart in the source"}, "BCR–-ABL kinase": {"test_system": "BCR–-ABL kinase", "settings": "higher than imatinib; cited from earlier work"}},
  "note": "Like-named read-outs stand apart in the source and are kept apart here.",
  "data": [
    {"molecule": "Cc1nc(Nc2ncc(C(=O)Nc3c(C)cccc3Cl)s2)cc(N2CCN(CCO)CC2)n1", "note": "[Dasatinib]", "values": [
      {"measurement": "Median plasma concentration, adults", "setting": "[1]; adult patients, N = 3", "result": 0.4, "unit": "µg/mL"},
      {"measurement": "Plasma concentrations, median (IQR)", "setting": "[1]", "result": "0.06 (0.03–0.33) µg/mL"},
      {"measurement": "Plasma concentrations, median (IQR)", "setting": "[1]; listed as dasatinib", "result": 0.06, "unit": "µg/mL"},
      {"measurement": "Median plasma concentration, paediatrics", "setting": "[1]; paediatric patients, N = 36", "result": 0.05, "unit": "µg/mL"},
      {"measurement": "Cerebrospinal fluid concentrations, median (IQR)", "setting": "[2]", "result": "0.11 (0.06–0.32) µg/mL"},
      {"measurement": "Cerebrospinal fluid concentrations, median (IQR)", "setting": "[2]; listed as dasatinib", "result": 0.11, "unit": "µg/mL"},
      {"measurement": "Median CSF level, paediatrics", "setting": "[2]; paediatric patients, N = 36", "result": 0.11, "unit": "µg/mL"},
      {"measurement": "Substrate of PGP", "setting": "p-glycoprotein (PGP)", "result": "substrate"},
      {"measurement": "Blood–brain barrier crossing", "setting": "[3]", "result": "ability to cross the blood–brain barrier"},
      {"measurement": "Substrate of BCRP", "setting": "[4]", "result": "substrate"},
      {"measurement": "Average half-life", "setting": "[5]", "result": "1.3 to 5", "unit": "h"},
      {"measurement": "Distribution volume", "setting": "[5]", "result": "> 3", "unit": "L/kg"},
      {"measurement": "Time of concentration peak after administration", "setting": "[5]; oral", "result": "0.5 to 3", "unit": "h"},
      {"measurement": "Patients with drug-related pulmonary hypertension", "setting": "[6]; adults with CML who are imatinib-resistant/intolerant", "result": 2, "unit": "%"},
      {"measurement": "Patients with drug-related pulmonary hypertension", "setting": "[6]; newly diagnosed adults with CML", "result": 5, "unit": "%"}
    ]},
    {"molecule": "Cc1ccc(NC(=O)c2ccc(CN3CCN(C)CC3)cc2)cc1Nc1nccc(-c2cccnc2)n1", "note": "[Imatinib]", "values": [
      {"measurement": "Blood–brain barrier crossing", "setting": "[3]", "result": "ability to cross the blood–brain barrier"},
      {"measurement": "Time of plasma peak", "setting": "[5]; oral", "result": "2 to 4", "unit": "h"}
    ]},
    {"molecule": "Cc1cn(-c2cc(NC(=O)c3ccc(C)c(Nc4nccc(-c5cccnc5)n4)c3)cc(C(F)(F)F)c2)cn1", "note": "[Nilotinib]", "values": [
      {"measurement": "Strength of inhibition of tyrosine kinase protein's activity versus imatinib", "setting": "BCR–-ABL kinase", "result": "20–50 times"},
      {"measurement": "Plasma concentrations, median (IQR)", "setting": "[1]", "result": "0.19 (0.16–0.22) µg/mL"},
      {"measurement": "Mean plasma concentration", "setting": "[1]; two adult male patients", "result": 190, "unit": "ng/mL"},
      {"measurement": "Average half-life", "setting": "[5]", "result": "approximately 15 h"},
      {"measurement": "Bioavailability", "setting": "[5]; oral", "result": "approximately 30%"},
      {"measurement": "Time of concentration peak after administration", "setting": "[5]; oral", "result": 3, "unit": "h"}
    ]},
    {"molecule": "Cc1ccc(C(=O)Nc2ccc(CN3CCN(C)CC3)c(C(F)(F)F)c2)cc1C#Cc1cnc2cccnn12", "note": "[Ponatinib]", "values": [
      {"measurement": "Cerebrospinal fluid concentrations, median (IQR)", "setting": "[2]", "result": "0.65 (0.18–1.65) µg/mL"},
      {"measurement": "Cerebrospinal fluid concentrations, median (IQR)", "setting": "[2]; listed as ponatinib", "result": 0.65, "unit": "µg/mL"},
      {"measurement": "Half-life", "setting": "[5]", "result": "approximately 24 h"},
      {"measurement": "Time of peak concentration after administration", "setting": "[5]; oral", "result": "≤ 6", "unit": "h"}
    ]}
  ]
}
